In patent publication US20150119435A1, “COMPOUNDS USEFUL FOR PROMOTING PROTEIN DEGRADATION AND METHODS USING SAME” (YALE UNIVERSITY, priority 2012, published 2015):

Experiments:
[1] = biological target: T1, androgen receptor (AR) (Homo sapiens, UniProt P10275); test: SARD mediated AR degradation (western blot); conditions: for AR degradation (in words): at the concentrations assayed
T1 sequence (P10275 1-920): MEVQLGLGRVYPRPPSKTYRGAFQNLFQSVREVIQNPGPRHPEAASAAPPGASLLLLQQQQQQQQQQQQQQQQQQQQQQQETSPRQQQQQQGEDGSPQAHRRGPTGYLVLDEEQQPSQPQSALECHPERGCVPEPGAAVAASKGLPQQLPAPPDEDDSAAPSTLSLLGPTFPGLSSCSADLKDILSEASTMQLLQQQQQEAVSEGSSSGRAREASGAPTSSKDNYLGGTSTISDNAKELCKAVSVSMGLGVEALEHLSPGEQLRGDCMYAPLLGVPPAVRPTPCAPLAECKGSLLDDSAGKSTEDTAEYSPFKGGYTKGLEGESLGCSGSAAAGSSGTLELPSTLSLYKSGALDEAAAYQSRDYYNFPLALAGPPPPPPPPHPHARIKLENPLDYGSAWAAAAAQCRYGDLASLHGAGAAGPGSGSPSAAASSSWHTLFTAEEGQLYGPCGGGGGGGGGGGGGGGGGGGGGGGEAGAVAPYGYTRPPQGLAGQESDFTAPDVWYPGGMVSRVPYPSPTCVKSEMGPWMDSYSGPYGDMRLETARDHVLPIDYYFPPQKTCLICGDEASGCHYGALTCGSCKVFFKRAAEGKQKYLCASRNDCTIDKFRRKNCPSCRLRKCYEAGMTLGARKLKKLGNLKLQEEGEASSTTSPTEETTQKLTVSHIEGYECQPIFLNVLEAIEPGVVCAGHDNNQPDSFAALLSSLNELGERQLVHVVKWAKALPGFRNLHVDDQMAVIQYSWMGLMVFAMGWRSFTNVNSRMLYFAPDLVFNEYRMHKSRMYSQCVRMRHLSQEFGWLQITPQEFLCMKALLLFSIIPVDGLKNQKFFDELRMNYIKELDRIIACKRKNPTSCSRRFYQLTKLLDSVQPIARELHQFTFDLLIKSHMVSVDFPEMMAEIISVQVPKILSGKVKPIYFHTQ

[2] = test system: androgen dependent LnCAP cells; test: Proliferation of androgen dependent LnCAP prostate cancer cells; type: cell-based; conditions: 1 μM, several days
Description: (§1) FIG. 26, comprising FIGS. 26A-26C, is a series of graphs illustrating in vitro activity of SARDS compounds. FIG. 26A: effect of SARDS on cell proliferation of LnCAPs. FIG. 26B: effect of SARDS on the proliferation of non-AR dependent cell lines. FIG. 26C: effect of SARDS on androgen independent prostate cancer cells.

[3] = test system: AR-independent HEK293 cells; test: General cell toxicity in AR-independent HEK293 cells; type: cell-based; conditions: HEK293, 1 μM, 48 h
Procedure: as §1
(§2) To access general cell toxicity, AR-independent HEK293 and HELA cells were treated with 1 μM SARD 279.

[4] = test system: AR-independent HELA cells; test: General cell toxicity in AR-independent HELA cells; type: cell-based; conditions: 1 μM, 48 h
Procedure: as §1, §2

## CC1(C)C(=O)N(c2ccc(C#N)c(C(F)(F)F)c2)C(=S)N1CCCCO [RU 59063, 4-[3-(4-hydroxybutyl)-4,4-dimethyl-5-oxo-2-thioxoimidazolidin-1-yl]-2-(trifluoromethyl)benzonitrile, reference compound]
[1]
  AR degradation (in words): no degradation was detected

## CC1(C)C(=O)N(c2ccc(C#N)c(C(F)(F)F)c2)C(=S)N1CCCC(=O)NCCOCCOCCOCCOC12CC3CC(CC(C3)C1)C2 [SARD 033, N-(2-(2-(2-(2-(Adamantan-1-yloxy)ethoxy)ethoxy)ethoxy)ethyl)-4-(3-(4-cyano-3-(trifluoromethyl)phenyl)-5,5-dimethyl-4-oxo-2-thioxoimidazolidin-1-yl)butanamide]
[2]
  Cell growth / proliferation of LnCAP cells: significantly attenuated cell growth

## CC1(C)C(=O)N(c2ccc(C#N)c(C(F)(F)F)c2)C(=S)N1CCCC(=O)NCCOCCOC(=O)CC12CC3CC(CC(C3)C1)C2 [SARD 279, 2-(2-(4-(3-(4-Cyano-3-(trifluoromethyl)phenyl)-5,5-dimethyl-4-oxo-2-thioxoimidazolidin-1-yl)butanamido)ethoxy)ethyl 2-(adamantan-1-yl)acetate]
[3]
  Cytotoxicity compared to vehicle: did not display cytotoxic results
[4]
  Cytotoxicity compared to vehicle: did not display cytotoxic results
[1]; read-out: DC50 (half maximum degradation concentration) of AR, AR degradation, western blot
  DC50: 1000 nM

## CCOCCOCCNC(=O)CCCN1C(=S)N(c2ccc(C#N)c(C(F)(F)F)c2)C(=O)C1(C)C [SARD 280, 4-(3-(4-Cyano-3-(trifluoromethyl)phenyl)-5,5-dimethyl-4-oxo-2-thioxoimidazolidin-1-yl)-N-(2-(2-ethoxyethoxyl)ethyl)butanamide]
[1]
  AR degradation (in words): affected degradation only at higher concentrations and did not achieve complete AR degradation at the concentrations assayed
